# Like-named read-outs stand apart in the source and are kept apart here.
# Tests used:
# [1] = Toxicity: S-GPT (serum transaminase) and BUN (blood urea nitrogen) levels; format: in vivo
# [2] = test system: Mouse lymphatic leukemia tumor cells, P-388; experiment: Growth suppressing effect on mouse lymphatic leukemia tumor cells P-388 (48 h culture, Coulter counter cell count); format: cell-based; conditions: P-388 cells 5 x 10^4 cells/ml, 37°C, no more than 0.5% DMSO
# Experimental: The number of suspended cells was counted with a Coulter counter and ICso values were determined from dose response curves that were constructed for the respective compounds on the basis of percent growth inhibition as compared to the absence of the compounds.
Compound,S-GPT (serum transaminase) ([1]; indicator of hepatotoxicity),BUN (blood urea nitrogen) ([1]; indicator of nephrotoxicity),IC50 ([2]; read-out: IC50) [nM],IC50 [2] [µg/mL]
"bis{β-methyl(p-isobutylphenylpyruvato)}(trans-Q-1,2-diaminocyclohexane)platinum (II) [Compound No. 14]",did not cause any appreciable increase,did not cause any appreciable increase,–,–
bis(β-methylphenylpyruvato)ethylenediamine platinum (II) [Compound No. 17],–,–,> 10000,–
"CC(C(=O)C(=O)[O-])c1ccc(C(=O)[O-])cc1.CC(C(=O)C(=O)[O-])c1ccc(C(=O)[O-])cc1.C[NH2+]C.C[NH2+]C.NC1CCCCC1N.[Pt+2] (stereo not drawn) [Compound No. 33, bis{β-methyl(p-carboxyphenylpyruvato)}(trans-d,ℓ-1,2-diaminocyclohexane)platinum (II) bis(dimethylammonium) salt]",–,–,28,0.024

# — patent EP0386243A1, “PLATINUM (II) COMPLEXES” (SAGAMI CHEMICAL RESEARCH CENTER, priority 1987, dated 1989)
